Experimental data: US20080200491A1, “1,2-Dihydro-Spiro[3H-Indole-3,4'-Piperidine] Compounds, as Modulators of the Mas Receptor Novel” (priority 2005, published 2008)
“Also recorded” adds a separate entry of the source.

Experiments:
[1] = target: T1, Mas receptor (Homo sapiens, UniProt P04201); test: Mas receptor IP3 assay (inverse agonist assay); assay type: cell-based; set-up: expressed in transfected cells; details: for IC50: n = 2
T1 sequence (P04201 1-325): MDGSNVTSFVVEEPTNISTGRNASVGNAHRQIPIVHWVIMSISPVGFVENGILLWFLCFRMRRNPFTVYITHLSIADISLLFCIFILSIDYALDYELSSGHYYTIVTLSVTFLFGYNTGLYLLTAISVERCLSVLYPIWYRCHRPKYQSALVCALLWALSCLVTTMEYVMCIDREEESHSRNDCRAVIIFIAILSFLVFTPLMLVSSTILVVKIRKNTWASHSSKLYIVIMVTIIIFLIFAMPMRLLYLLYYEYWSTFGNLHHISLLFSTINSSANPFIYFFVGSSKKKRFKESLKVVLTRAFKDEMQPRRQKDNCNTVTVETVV
Experimental: The Mas receptor IP3 assay was performed using a mammalian cell line (HEK293) which was transfected with a plasmid containing the human Mas receptor and selected for stable expression of the receptor. […] To achieve this, Mas receptor expression levels were increased by transiently transfecting the same Mas receptor stable cell line with additional human Mas receptor plasmid DNA following standard procedures. These cells were used in the Mas receptor IP3 assay approximately 24 hours post-transfection.
Cells were split into 96-well plates (50,000 cells/well) and allowed to attach for a period of 6 hours. The growth medium was then replaced with medium supplemented with 4 μCi/mL [3H]myo-inositol (100 μl; Perkin Elmer Life Sciences) and the cells were allowed to incubate for approximately 20 hours. Test compounds were serially diluted in inositol-free media containing 10 mM LiCl. The media in the plates was removed by aspiration, replaced with these test compound solutions and incubated at 37° C. for 1 hour.
Following this incubation, the media was removed by aspiration and replaced with buffer containing 0.1M formic acid. The plates were then frozen overnight at −80° C. to achieve complete cell lysis.
The following day, the assay plates were thawed at room temperature. The thawed contents were then transferred to 96-well filter plates (Nillipore, Multiscreen) pre-loaded with resin (Biorad, AG1-X8 100-200 mesh, formate form). The plate was filtered using a vacuum manifold and the resin was washed multiple times with water. An elution buffer was then applied (200 μl, 0.2M Ammonium formate/0.1M formic acid) and the resulting eluent was collected, under vacuum, in a 96-well collection plate. Aliquots of the eluent (80 μl) were transferred to filter plates (Whatman, Unifilter GF/C) and dried in a 45° C. oven overnight. Dried plates were counted on a scintillation counter following the addition of an appropriate scintillant (Perkin Elmer Life Sciences, Optiphase Supermix or Hi-Safe 3).

[2] = system: blood pressure in rats; test: Blood pressure measurement in rats by telemetry; assay type: in vivo, rat; details: conscious rats, IP injection, FIG. 5
Experimental: Cardiac parameters were measured by small transmitting devices, (Data Sciences PhysioTel Telemetry devices), implanted in rats. The implanted transmitting devices were used to measure blood pressure in freely moving conscious animals. There are no external connections or tethering devices that can inhibit animal movement and induce unnecessary stress, which can affect the outcome of a study.
This procedure was performed under modified aseptic conditions. Rats were anesthetized with Isoflurane gas that ranged in concentration from 1.5-2.0%. A cardiac telemetry device was implanted into the peritoneal cavity with a pressure sensing catheter situated no more than 2 cm inside the descending aorta. This was accomplished as follows: The rat was shaved and the incision site was prepared with an iodine solution. The rat was then placed on a heating pad to maintain a constant body temp of 38+/−0.5° C., and covered with a sterile drape. A 6 cm midline abdominal incision was made to provide access to the implantation area. […] The rats were monitored for 7 days to ensure proper recovery.
On the test day, injections with either vehicle or with test compound were administered via IP injection in volumes of ˜250 μl. Animals were monitored with a resolution of approximately one measurement/min for 60 minutes before injection of vehicle or compound and for about 120 minutes after injection.

[3] = system: isolated rat aortic rings; test: Angiotensin II induced vasoconstriction in isolated rat aortic rings; details: pretreatment 15 min; Angiotensin II 1 uM; same doses also tested against norepinephrine 1 uM; FIG. 6
Experimental: Sprague-Dawley rats (250-300 g) were euthanized via CO2 chamber. […] The excess adventitial tissue was carefully removed and the endothelium was sloughed off by rinsing with buffer via syringe. The vessel was then cut into 2-3 mm rings and mounted on wire stirrups connected to force transducers (World Precision Instruments, Myobath 4 channel system, FORT-10) to record changes in isometric force. The aortic rings were then placed in 15 mL organ baths filled with buffer at 37° C. with continuous aeration (95% O2 and 5% CO2)
The rings were left to equilibrate in buffer for 30 minutes. A resting tension of 4 g was applied and the rings were allowed to equilibrate for 1 hour. During the equilibration period, the buffer was changed every 30 minutes. After equilibration was complete, the aortic rings were tested for viability and maximal contraction response by addition of 50 mM KCl.
Aortic rings were contracted with AngiotensinII (1 uM) Sigma, St Louis, Mo. and the isometric force recorded. […] The aortic rings were then treated with the agonist, AngiotensinII (1 uM), and the change in isometric force was recorded. […]
Data for each group (Compound S75 concentration) was from n=4 aortic rings. Change in aortic tension after AngiotensinII treatment was expressed as a percentage to 50 mM KCL in order to normalize tension for each aortic ring.

[4] = system: isolated rat hearts; test: Ischemia-reperfusion assay in isolated adult rat hearts (Langendorff apparatus)
Experimental: Male Sprague-Dawley rats (300-350 g body weight) were anesthetized with Inactin (100 mg/kg IP) 20 minutes prior to surgery. The chest wall was opened and the heart was rapidly excised and immediately placed into ice-cold Krebs-Henseleit (KH) buffer (118 mM NaCl, 4.7 mM KCl, 1.2 mM MgSO4, 1.2 mM KH2PO4, […], 25 mM NaHCO3, 11 mM glucose, 1 mM pyruvate, and 0.005 mM EDTA) to produce cardiac arrest. The aorta was then cannulated and the heart retrogradely perfused with KH buffer maintained at 37° C. in a reservoir bubbled with 95% O2/5% CO2 (pH7.4) on the Langendorff apparatus at a constant pressure of 70 mmHg. Myocardial temperature was maintained at 37° C. by partially submerging the heart into a water-jacketed chamber filled with KH buffer. A water filled latex balloon attached to a metal cannula and inserted into the left ventricle via the mitral valve and connected to a pressure transducer (Powerlab, ADInstruments, Inc) was used for measurement of left ventricular pressure. The balloon was initially inflated to an end-diastolic pressure of 10 mmHg. After allowing 20 minutes for equilibration, rat hearts were subjected to 10 minutes of KH buffer containing drug or vehicle followed by 30 minutes of ischemia followed by 30 minutes of reperfusion. The difference between peak-systolic and end diastolic pressures, or left ventricular developed pressure (LVDP) was calculated as an index of contractile function and measured just prior to ischemia and at 10, and 30 minutes of reperfusion. Percent recovery of LV function [(LVDP post reperfusion/LVDP pre-ischemia)[…]] was averaged across 5 vehicle and 4 drug treated hearts and one-way anova with Newman-Keuls Multiple Comparison Test was used to determine statistical significance.
Epicardial electrogram recordings were also taken from the isolated rat hearts used in FIGS. 2 and 3. Briefly, silver wire electrodes were placed on the right atrium and the apex of the left ventricle, allowing an epicardial electrogram to be recorded. Premature ventricular contraction (PVC), ventricular tachycardia and ventricular fibrillation were common arrhythmias observed during reperfusion following 30 minutes of global ischemia. Hearts were considered positive for reperfusion arrhythmias if ventricular arrhythmias were sustained for greater than 30 seconds during the first 5 minutes of reperfusion.

[5] = target: Mas receptor; details: Santos et al., PNAS 2003; cited from earlier work
[6] = target: T1, Mas receptor; details: Dong et al., Cell 2001; cited from earlier work

## CC(C)c1ccc2c(c1)C1(CCN(CCC(F)(F)F)CC1)CN2C(=O)c1c(F)cccc1F [Compound 1, 1′-(3,3,3-trifluoro-propyl)-1,2-dihydro-5-isopropyl-1-(2,6-difluoro-benzoyl)-spiro[3H-indole-3,4′-piperidine]]
[1]
  IC50: 28.6 nM

## C=CCN1CCC2(CC1)CN(C(=O)c1cccc(F)c1F)c1ccc(F)cc12 [Compound S75, 1′-(allyl)-1,2-dihydro-5-fluoro-1-(2,3-difluoro-benzoyl)-spiro[3H-indole-3,4′-piperidine]]
[1]; FIG. 1
  mode of action at the Mas receptor: inverse agonist
[2]
  change in blood pressure after treatment: does not raise blood pressure; also recorded: did not result in a significant change in blood pressure
[3]
  inhibition of angiotensin II induced vasoconstriction: potent and selective inhibition
[4]; 30 μM, 30 min ischemia, 30 min reperfusion, FIG. 2
  left ventricle function after reperfusion compared to vehicle treatment: significant increase in left ventricle function
[4]; 30 μM, FIG. 2
  level of left ventricle function after reperfusion versus level before ischemia: comparable to the level before ischemia
[4]; 30 μM, FIG. 3
  ischemic contracture: end diastolic pressure (EDP) compared to vehicle treatment: significant decrease in end diastolic pressure
[4]; ventricular arrhythmias sustained > 30 seconds during first 5 minutes of reperfusion, FIG. 4
  early reperfusion arrhythmias: none of the four hearts

## DRVYIHP [Ang (1-7), H-Asp-Arg-Val-Tyr-Ile-His-Pro-OH]
[5]
  Kd: 0.33 nM

## angiotensin II: known vasoconstrictor peptide, control compound in the blood pressure study (DRVYIHPF; Angiotensin-2; UniProt P01019 25-32, looked up) [reference compound]
[2]
  change in blood pressure after treatment: significant increase in blood pressure

## CCCN1CCC2(CC1)CN(C(=O)c1c(F)cccc1F)c1ccc(C(C)(C)C)cc12 [Compound 4, 1′-(propyl)-1,2-dihydro-5-tert-butyl-1-(2,6-difluoro-benzoyl)-spiro[3H-indole-3,4′-piperidine]]
[1]
  IC50: 35.1 nM

## a peptide called NPFF, reported to bind the Mas receptor weakly and NPFF1/NPFF2 with high affinity
[6]
  EC50: ~400 nM
